From patent US12282021B2, “Stratification of acute myeloid leukaemia patients for sensitivity to kinase pathway inhibitor therapy” (KINOMICA LIMITED, priority 2017, dated 2025)

Tested on: AML primary cells
Experiment: Viability assay: ex-vivo drug testing of AML primary cells with kinase inhibitors (Guava ViaCount, 72h)
Type: cell-based, human
Details: for AML cases whose viability was reduced by >50% relative to DMSO control / number of AML cases whose viability was reduced by >50% relative to DMSO control / sensitivity of M4-Like and CDs+ cases versus M1-Like and CDs− cases (cell viability): 72h; for AML cases whose viability was reduced by >50% relative to DMSO control / number of AML cases whose viability was reduced by >50% relative to DMSO control: ex vivo; for sensitivity of M4-Like and CDs+ cases versus M1-Like and CDs− cases (cell viability): 1 μM PAKi, 10 μM FLT3/PKCi (FIG. 5A-B)
Description: The study was performed in 36 randomly selected primary samples of mononuclear cells extracted from the peripheral blood of AML patients at diagnosis. Experiments were performed as described below to determine the in vitro viability of the cells in response to treatment with inhibitors of the kinases FLT3/PKC (midostaurin, FLT3/PKCi), PAK (PF-3758309 PAKi), CK2 (silmitasertib CK2i) and MEK (trametinib, MEKi) The P38 inhibitor (P38i) TAK-715 was included as a negative control. Cells obtained from of 36 AML patients with well annotated clinical data were treated with these compounds for 72h.
The study was performed in 36 primary samples of mononuclear cells extracted from the peripheral blood of AML patients at diagnosis. Samples were randomly selected from the BCI tissue bank collection. Initially, 45 samples were included in the study but nine were later excluded because these were not viable in the ex-vivo experiments. Material availability allowed proteomics and mass cytometry analysis of 30 samples and DNA sequencing of 27 samples. Ex-vivo drug testing was performed in quadruplicate sampling replicates and viability values averaged and expressed relative to vehicle control.
Ex-vivo drug testing of AML primary cells was as previously described in Casado P, Rodriguez-Prados J C, Cosulich S C, et al. Kinase-substrate enrichment analysis provides insights into the heterogeneity of signaling pathway activation in leukemia cells. Sci Signal. 2013; 6(268):rs6. Briefly, cells were re-suspended in MS-5 conditioned IMDM medium, seeded in 96 well plates and treated with vehicle or 1 to 10000 nM of the indicated inhibitors for 72h. Cells were stained with Guava ViaCount reagent and cell number and viability was measured. Flow cytometry data were analyzed using CytoSoft (v2.5.7).
Mass cytometry was used to simultaneously measure the surface expression of 17 differentiation markers (CD3, CD7, CD11b, CD14, CD15, CD16, CD19, CD33, CD34, CD38, CD44, CD45, CD64, CD117, CD123, CD184, HLA-DR) in mononuclear cells extracted from the peripheral blood of 30 AML patients. Label free quantitative phosphoproteomics based on TiO2 phosphoenrichment was used to quantify>5,000 phosphorylation sites in the same AML primary samples and KSEA technology was applied to infer kinase activity from the phosphoproteomics data. Gene ontology enrichment was calculated based on the genes that code for the proteins where the phosphorylation sites were detected using DAVID software. Guava EasyCyte Flow Cytometry was used to determine cell viability after the treatment of the same patient samples with 5 kinase inhibitors (PF-3758309, Midostaurin, silmitasertib, trametinib and TAK715 aiming to target the kinases PAK, Flt-3, Casein Kinase 2, MEK and P38, respectively).

[1] = 15 cases positive for RAS/MEK/ERK activation

Compound | potency relative to the other compounds tested (1 μM dose, 36 AML cases) | AML cases whose viability was reduced by >50% relative to DMSO control (1 μM dose, 36 AML cases) [%] | number of AML cases whose viability was reduced by >50% relative to DMSO control (1 μM dose, 36 AML cases) | sensitivity of M4-Like and CDs+ cases versus M1-Like and CDs− cases (cell viability) | effect of FLT3-ITD status on the responses of cells (FIG. 7F and FIG. 14B) | sensitivity of samples positive for either CDs or phosphorylation on GSK3A or PCKδ versus other cases (FIG. 7F and FIG. 14B) | cases positive for RAS/MEK/ERK activation that showed high responses [1] [%] | number of cases positive for RAS/MEK/ERK activation that showed high responses [1]
Cc1nc(Nc2[nH]nc3c2CN(C(=O)N[C@H](CN(C)C)c2ccccc2)C3(C)C)c2sccc2n1 [PAKi, PF-3758309] | most potent of all the compounds tested | 50 | 18/36 | more sensitive |  |  |  | 
CO[C@@H]1[C@H](N(C)C(=O)c2ccccc2)C[C@H]2O[C@]1(C)n1c3ccccc3c3c4c(c5c6ccccc6n2c5c31)C(=O)NC4 [FLT3/PKCi, midostaurin] |  | 25 | 9/36 | more sensitive | did not have an effect | more sensitive |  | 
CCc1nc(-c2cccc(C)c2)c(-c2ccnc(NC(=O)c3ccccc3)c2)s1 [P38i, TAK-715] |  | 8 | 3 AML cases | no differences |  |  |  | 
O=C(O)c1ccc2c(c1)nc(Nc1cccc(Cl)c1)c1ccncc12 [CK2i, silmitasertib] |  | 22 | 8/36 |  |  |  |  | 
CC(=O)Nc1cccc(-n2c(=O)n(C3CC3)c(=O)c3c(Nc4ccc(I)cc4F)n(C)c(=O)c(C)c32)c1 [MEKi, trametinib] |  | 22 | 8/36 |  |  |  | ~50 | 7/15
